Patent US9688695B2, “Imidazothiadiazole and imidazopyrazine derivatives as protease activated receptor 4 (PAR4) inhibitors for treating platelet aggregation” (BRISTOL-MYERS SQUIBB COMPANY, priority 2012, dated 2017)

Legend:
PAR1 = PAR1 (Homo sapiens (Human), UniProt P25116); conditions: ACS patients, phase III; cited from earlier work
[1] = system: carotid artery thrombosis; assay: cynomolgus monkey electrolytic injury-induced carotid artery thrombosis model; type: in vivo
[2] = system: carotid artery thrombosis; assay: Cynomolgus monkey electrolytic injury-induced carotid artery thrombosis model; type: in vivo; conditions: oral, electrically-induced arterial thrombus model
Description: The efficacy of the PAR4 antagonists of the present invention in preventing thrombosis can also be measured in a variety of in vivo assays. Exemplary mammals that can provide models of thrombosis and hemostasis to test the effectiveness of the PAR4 antagonists of the present invention as antithrombotic agents include, but are not limited to, guinea pigs and primates. Relevant efficacy models include, but are not limited to, electrolytic injury-induced carotid artery thrombosis, FeCl3-induced carotid artery thrombosis and arteriovenous-shunt thrombosis. […]
On the day of the study, compounds or vehicles were administered orally at 1 to 2 hours before the experiment. […] Blood pressure and heart rate were monitored to maintain normal vital signs.
Carotid blood flow was measured with an appropriately sized TRANSONIC® flow probe and a TRANSONIC® perivascular flowmeter (TS420 Model, Transonic Systems Inc., Ithaca, N.Y.). It was continuously recorded over a 90-min period to monitor thrombosis-induced occlusion. Integrated carotid blood flow was measured by the area under the flow-time curve. It was expressed as percent of total control carotid blood flow, which would result if control blood flow had been maintained continuously for 90 min. […]

PAR4 [3] = target: T1, PAR4 (Homo sapiens (Human), UniProt Q96RI0); assay: FLIPR assay in PAR4-expressing HEK293 cells (PAR4 antagonist activity, calcium mobilization); type: cell-based; conditions: H-Ala-Phe(4-F)-Pro-Gly-Trp-Leu-Val-Lys-Asn-Gly-NH2-induced calcium mobilization
T1 sequence (Q96RI0 18-385): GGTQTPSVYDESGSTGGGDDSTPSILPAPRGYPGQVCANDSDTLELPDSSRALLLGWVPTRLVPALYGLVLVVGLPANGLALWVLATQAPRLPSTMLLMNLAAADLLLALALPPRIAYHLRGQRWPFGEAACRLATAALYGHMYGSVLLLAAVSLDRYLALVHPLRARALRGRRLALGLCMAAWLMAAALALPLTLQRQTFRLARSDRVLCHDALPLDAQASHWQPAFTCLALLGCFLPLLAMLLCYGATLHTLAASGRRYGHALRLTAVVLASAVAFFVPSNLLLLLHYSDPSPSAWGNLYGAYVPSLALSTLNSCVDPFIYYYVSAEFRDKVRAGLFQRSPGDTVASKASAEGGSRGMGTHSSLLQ
Summary of the method: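 HEK293 EBNA cells stably expressing human PAR4 (also endogenous PAR1) preincubated 30 min at room temperature with compound in HBSS/10 mM HEPES, 0.67% DMSO final. PAR4 agonist peptide then added and intracellular calcium mobilization monitored by fluorescence.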

PAR4 [4] = target: T1, PAR4; assay: Gamma thrombin induced platelet aggregation assay (PRP assay); type: cell-based; conditions: human platelet rich plasma, 96-well microplate
Experimental: Platelet aggregation can be monitored in a 96-well microplate aggregation assay format or using standard platelet aggregometer.
The platelet rich plasma was isolated by centrifugation at 170 g for 14 minutes.
The ability of the compounds of the current invention to inhibit platelet aggregation induced by gamma-thrombin was tested in a 96-well microplate aggregation assay format. Briefly, PRP or washed platelet suspension (100 μl) was pre-incubated for 5 minutes at room temperature with varying concentrations of compounds. Aggregation was initiated by ˜10-50 nM gamma thrombin (Haematologic Technologies, Essex Junction, Vt.), which was titrated daily to achieve 80% platelet aggregation. Refludan at 1 U/mL (Berlex, Montville, N.J.) was added to the gamma thrombin sample to prevent PAR1 activation induced by residual alpha-thrombin contamination. The plate was then placed into a 37° C. Molecular Devices (Sunnyvale, Calif.) SPECTRAMAX® Plus Plate Reader. […] The plate also included an untreated control sample which served as ODmax, while buffer containing no platelets was the ODmin. Platelet aggregation was determined by subtracting the ODmax from the ODmin for the 100% aggregation value. In experimental samples, the observed transmission was subtracted from the minimum value and then compared to the 100% aggregation value to determine the percentage aggregation. IC50 values are determined using Excel Fit software.

Sequence of PAR1 (P25116 22-425): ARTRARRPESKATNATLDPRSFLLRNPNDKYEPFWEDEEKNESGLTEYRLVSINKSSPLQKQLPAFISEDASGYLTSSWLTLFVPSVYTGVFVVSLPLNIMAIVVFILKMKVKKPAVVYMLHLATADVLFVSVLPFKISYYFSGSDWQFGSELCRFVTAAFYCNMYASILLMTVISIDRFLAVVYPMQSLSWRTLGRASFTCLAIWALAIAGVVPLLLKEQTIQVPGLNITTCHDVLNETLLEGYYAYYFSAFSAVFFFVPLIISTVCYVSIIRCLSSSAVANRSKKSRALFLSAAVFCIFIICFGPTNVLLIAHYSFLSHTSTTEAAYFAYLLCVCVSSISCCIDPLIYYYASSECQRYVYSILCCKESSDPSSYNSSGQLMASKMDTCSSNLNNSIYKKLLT

Row | SMILES | EC50 (PAR4 [3]) | IC50 (PAR4 [4]) | further results
1 | CCOC(=O)N[C@@H]1CC[C@@H]2[C@@H](C1)C[C@H]1C(=O)O[C@H](C)[C@H]1[C@H]2/C=C/c1ccc(-c2cccc(F)c2)cn1 [vorapaxar] |  |  | cardiovascular events (PAR1): did not significantly reduce cardiovascular events; risk of major bleeding (PAR1): significantly increased the risk of major bleeding
2 | COc1cc(OCc2csc(-c3ccccc3)n2)c2cc(-c3cn4nc(OC)sc4n3)oc2c1 [Example 3, 2-Methoxy-6-(6-methoxy-4-((2-phenylthiazol-4-yl)methoxy)benzofuran-2-yl)imidazo[2,1-b][1,3,4]thiadiazole] |  |  | antithrombotic efficacy (FIG. 1C) [1]: antithrombotic efficacy; antithrombotic efficacy (dose response, FIG. 1C) [2]: demonstrating the in vivo antithrombotic efficacy
3 | CC(F)(F)c1nn2cc(-c3cc4c(OCc5csc(-c6ccccc6)n5)nccc4o3)nc2s1 [Example 202, 2-(2-(1,1-Difluoroethyl)imidazo[2,1-b][1,3,4]thiadiazol-6-yl)-4-((2-phenylthiazol-4-yl)methoxy)furo[3,2-c]pyridine] | 43 nM | > 3000 nM | 
4 | CCc1sc(-c2ccc(C(=O)N(C)C)cc2)nc1COc1cc(OC)cc2oc(-c3cn4nc(OC)sc4n3)cc12 [Example 44, 4-(5-Ethyl-4-(((6-methoxy-2-(2-methoxyimidazo[2,1-b][1,3,4]thiadiazol-6-yl)benzofuran-4-yl)oxy)methyl)thiazol-2-yl)-N,N-dimethylbenzamide] | 0.9 nM | 2 nM | 
5 | COc1cc(OCc2csc(N3CCN(C)C(C)C3)n2)c2cc(-c3cn4nc(C)ccc4n3)oc2c1 (stereo not drawn) [Example 276] | 24 nM | > 3000 nM | 
6 | COCCOCc1nc(COc2cc(OC)cc3oc(-c4cn5nc(OC)sc5n4)cc23)cs1 [Example 6, 2-Methoxy-6-(6-methoxy-4-((2-((2-methoxyethoxy)methyl)thiazol-4-yl)methoxy)benzofuran-2-yl)imidazo[2,1-b][1,3,4]thiadiazole] | 0.68 nM | 2030 nM | 
7 | COc1cc(OCc2nc(C3(O)CCOCC3)sc2C(F)(F)F)c2cc(-c3cn4nc(OC)sc4n3)oc2c1 [Example 131, 4-(4-(((6-Methoxy-2-(2-methoxyimidazo[2,1-b][1,3,4]thiadiazol-6-yl)benzofuran-4-yl)oxy)methyl)-5-(trifluoromethyl)thiazol-2-yl)tetrahydro-2H-pyran-4-ol] | 0.66 nM | > 3000 nM | 
8 | COc1cc(OCc2csc(NCCN3CCOCC3)n2)c2cc(-c3cn4nc(C)ccc4n3)oc2c1 [Example 244] | 909 nM | > 3000 nM | 
9 | COc1cc(OCc2cscn2)c2cc(-c3cn4nc(OC)sc4n3)oc2c1 [Example 34] | 1.2 nM | 2320 nM | 
10 | COc1cc(OCc2csc(Nc3cc(C)cc(C)n3)n2)c2cc(-c3cn4nc(C)ccc4n3)oc2c1 [Example 264] | 207 nM | > 3000 nM | 
11 | COc1cc(OCc2csc(-c3ccc(C(=O)NCC(F)(F)F)cc3)n2)c2cc(-c3cn4nc(OC)sc4n3)oc2c1 [Example 305] | 1 nM | 2 nM | 
12 | COc1cc(OCc2csc(NCCCN3CCCC3=O)n2)c2cc(-c3cn4nc(C)ccc4n3)oc2c1 [Example 254] | 19 nM | > 3000 nM | 
13 | COc1cc(OCc2csc(N3CCC[C@@H]3C)n2)c2cc(-c3cn4nc(C)ccc4n3)oc2c1 [Example 274] | 3.4 nM | > 3000 nM | 
14 | COc1cc(OCc2csc(C3(O)CCC(C(=O)N4CCCC4)CC3)n2)c2cc(-c3cn4nc(OC)sc4n3)oc2c1 (stereo not drawn) [Example 151, (4-Hydroxy-4-(4-(((6-methoxy-2-(2-methoxyimidazo[2,1-b][1,3,4]thiadiazol-6-yl)benzofuran-4-yl)oxy)methyl)thiazol-2-yl)cyclohexyl)(pyrrolidin-1-yl)methanone] | 0.84 nM | 26 nM | 
15 | COc1cc(OCc2csc(Nc3ccc4scnc4c3)n2)c2cc(-c3cn4nc(C)ccc4n3)oc2c1 [Example 281] | 0.6 nM | > 3000 nM | 
16 | COc1cc(OCc2csc(C3(c4ccc(C(=O)N(C)C)cc4)CCOCC3)n2)c2cc(-c3cn4nc(OC)sc4n3)oc2c1 [Example 161, 4-(4-(4-(((6-Methoxy-2-(2-methoxyimidazo[2,1-b][1,3,4]thiadiazol-6-yl)benzofuran-4-yl)oxy)methyl)thiazol-2-yl)tetrahydro-2H-pyran-4-yl)-N,N-dimethylbenzamide] | 0.69 nM | 27 nM | 
17 | COc1cc(OCc2csc(N3CCN(c4cccc(Cl)c4)CC3)n2)c2cc(-c3cn4nc(C)ccc4n3)oc2c1 [Example 268] | 1.7 nM | 2360 nM | 
18 | COc1cc(OCc2csc(-c3ccccc3)n2)c2cc(-c3cn4nc([C@H](C)F)sc4n3)oc2c1 [Example 192, (S)-2-(1-Fluoroethyl)-6-(6-methoxy-4-((2-phenylthiazol-4-yl)methoxy)benzofuran-2-yl)imidazo[2,1-b][1,3,4]thiadiazole] | 1.9 nM | 28 nM | 
